# Experimental data as given in patent US20030096264A1, “Multi-parameter high throughput screening assays (MPHTS)” (Psychiatric Genomics, Inc., priority 2001, published 2003).
# How the values were obtained:
# [1] = tested on: human neuroblastoma cell line NBFL; assay: Microarray expression profile of NBFL cells incubated with valproate; format: cell-based; settings: 0.5 mM valproate, 24 h
# Description: The additional signature genes described here were identified using a human neuroblastoma cell line that is known in the art as NBFL (see, Symes et al., Proc. Natl. Acad. Sci. U.S.A. 1993, 90(2):572-576). NBFL cell cultures were maintained in DMEM medium supplemented with L-glutmine, antibiotics, 10% fetal bovine serum and 5% horse serum. Before treatment, cells were passaged, allowed to adhere overnight, and the medium was replaced with serum free medium for 24 hours. The cells were then incubated for 24 hours in either the presence or absence of valproate (0.5 mM), and in the absence of serum. mRNA was extracted from each group of cultures and sent to a commercial company for expression profiling by hybridization to microarrays. Data from at least three independent microarray experiments was then statistically evaluated to identify genes that are differentially expressed in the presence of valproate, relative to expression levels in the absence of valproate.
# Table 3, below, list each of the genes whose expression level changed in cells exposed to valproate, identified using a UniGem V2 array from Incyte (Palo Alto, Calif.) and also provides the expression ratio ((), defined in Example 1, supra) measured for each gene. Each gene is identified in Table 3 by its common name, as well as by the GenBank Accession and Gene Identification (GI) numbers for its nucleotide sequence. A cDNA sequence for each gene listed in Table 3 is also provided in the accompanying Sequence Listing, and its sequence identifier is specified in Table 3 along with the GenBank Accession number. Table 3 also indicates the Unigene cluster number for each gene from a recent build of the NCBI Unigene database.
# NBFL cell line = assay: RT-PCR validation of differential expression in NBFL cells treated with valproate; format: cell-based, human; settings: valproate treated vs untreated, normalized to GAPDH
# Description: To validate differential expression measurements that were obtained using microarrays, expression levels were also measured using a reverse transcription polymerase chain reaction (RT-PCR) assay for five genes having the highest expression ratio in Table 3: nidogen (SEQ ID NO:25; σ=1.7), silver (SEQ ID NO:26; σ=1.6), dopamine β-hydroxylase (SEQ ID NO:53; σ=-1.7), dopa decarboxylase (SEQ ID NO:54; σ=−2) and chromogranin B (SEQ ID NO:55; σ=−2.1). These RT-PCR experiments were performed according to routine methods that are known in 10 the art. Briefly, RNA from the NBFL cell line treated with or without valproate was primed with oligo-dT and reverse transcribed. The resultant cDNA was subjected to either 25 or 30 rounds of PCR amplification, depending on the absolute expression level of the gene tested. The amount of PCR product generated from each sample was normalized to the amount of GAPDH amplified from each sample and a fold-change relative to valproate treatment was calculated. β-actin was used as an additional control.
# The results from these experiments are shown graphically in FIG. 3. As expected, no change in β-actin (B-ACT) expression was detected (+/− one-fold) when cells were treated with valproate. However, a greater than 2-fold change in expression levels was measured for each of the five other genes tested: nidogoen (NID), silver (SIL), dopamine β-hydroxylase (DBH), dopa decarboxylase (DDC) and chromogranin B (CG-B).
structure (smiles),measurement,setting,value
CCCC(CCC)C(=O)O [valproate],expression ratio Φ: nidogen (NID),"[1]; serum free, SEQ ID NO: 25",1.7
same,expression ratio Φ: silver (SIL),[1]; SEQ ID NO: 26,1.6
same,expression ratio Φ: Homo sapiens clone 23798 and 23825,[1]; SEQ ID NO: 27,1.5
same,expression ratio Φ: LIM protein,[1]; SEQ ID NO: 28,1.4
same,expression ratio Φ: carnitine palmitoyltransferase II,[1]; SEQ ID NO: 29,1.4
same,expression ratio Φ: iduronate-2-sulfatase,[1]; SEQ ID NO: 30,1.4
same,expression ratio Φ: dynamin 1,[1]; SEQ ID NO: 31,1.4
same,expression ratio Φ: myosin IB,[1]; SEQ ID NO: 32,1.4
same,expression ratio Φ: EGF-like-domain,[1]; SEQ ID NO: 33,1.4
same,expression ratio Φ: islet cell autoantigen 1,[1]; SEQ ID NO: 34,−1.4
same,expression ratio Φ: regulator of G-protein signaling 5,[1]; SEQ ID NO: 35,−1.4
same,expression ratio Φ: XPA binding protein 1,[1]; SEQ ID NO: 36,−1.4
same,expression ratio Φ: P311 protein,[1]; SEQ ID NO: 37,−1.4
same,expression ratio Φ: SWI/SNF,[1]; SEQ ID NO: 38,−1.4
same,expression ratio Φ: ALL1,[1]; SEQ ID NO: 39,−1.4
same,expression ratio Φ: RNA binding motif,[1]; SEQ ID NO: 40,−1.4
same,expression ratio Φ: SMAD1,[1]; SEQ ID NO: 41,−1.4
same,expression ratio Φ: NADH dehydrogenase (ubiquinone),[1]; SEQ ID NO: 42,−1.4
same,expression ratio Φ: calmodulin 2,[1]; SEQ ID NO: 43,−1.4
same,expression ratio Φ: vimentin,[1]; SEQ ID NO: 44,−1.4
same,expression ratio Φ: GRB2-associated binding protein 1,[1]; SEQ ID NO: 45,−1.5
same,expression ratio Φ: splicing factor 3b (subunit 3),[1]; SEQ ID NO: 46,−1.5
same,expression ratio Φ: DKFZp547DO26_r1 (EST),[1]; SEQ ID NO: 47,−1.5
same,expression ratio Φ: insulinoma-associated 1 (INSM1),[1]; SEQ ID NO: 48,−1.6
same,expression ratio Φ: neuroendocrine secretory protein 55,[1]; SEQ ID NO: 49,−1.6
same,expression ratio Φ: v-yes-1,[1]; SEQ ID NO: 50,−1.6
same,expression ratio Φ: chromodomain helicase DNA binding,[1]; SEQ ID NO: 51,−1.6
same,expression ratio Φ: cholinergic receptor,[1]; SEQ ID NO: 52,−1.7
same,expression ratio Φ: dopmine β-hydroxylase (DBH),[1]; SEQ ID NO: 53,-1.7
same,expression ratio Φ: dopa decarboxylase (DDC),[1]; SEQ ID NO: 54,−2
same,expression ratio Φ: chromogranin B (CG-B),[1]; SEQ ID NO: 55,−2.1
same,change in expression level by RT-PCR: chromogranin B (CG-B),NBFL cell line,greater than 2 fold
same,change in expression level by RT-PCR: dopa decarboxylase (DDC),NBFL cell line,greater than 2 fold
same,change in expression level by RT-PCR: dopamine β-hydroxylase (DBH),NBFL cell line,greater than 2 fold
same,change in expression level by RT-PCR: nidogoen (NID),NBFL cell line,greater than 2 fold
same,change in expression level by RT-PCR: silver (SIL),NBFL cell line,greater than 2 fold
